The test system of assay [1] is Staphylococcus aureus. The assay can be described thus: Antibacterial activity against wild type methicillin-susceptible Staphylococcus aureus SA144 assessed as bacterial survival at 2.5 ug/ml after 2 hrs. It is filed as functional. To be noted: SA144, 2 h.
The test system of assay [2] is Staphylococcus aureus. Briefly: Antibacterial activity against methicillin-susceptible Staphylococcus aureus SA147 harboring deltacrtM-pDCerm::crtMN assessed as bacterial survival at 2.5 ug/ml after 2 hrs. The class given is functional. The settings on record: SA147, 2 h.
For assay [3], the system named is Staphylococcus aureus. Briefly: Antibacterial activity against wild type methicillin-susceptible Staphylococcus aureus SA144 assessed as bacterial survival at 5 ug/ml after 2 hrs. The class given is functional. To be noted: SA144, 2 h.
The test system of assay [4] is Staphylococcus aureus. Briefly: Antibacterial activity against methicillin-susceptible Staphylococcus aureus SA147 harboring deltacrtM-pDCerm::crtMN assessed as bacterial survival at 5 ug/ml after 2 hrs. It is filed as functional. To be noted: SA147, 2 h.
In assay [5] the test system is Staphylococcus aureus. Briefly: Antibacterial activity against methicillin-susceptible Staphylococcus aureus SA145 harboring crtM deletion mutant assessed as bacterial survival at 5 ug/ml after 2 hrs. The class given is functional. The settings on record: SA145, 2 h.
Assay [6] concerns Staphylococcus aureus. The assay can be described thus: Antibacterial activity against methicillin-susceptible Staphylococcus aureus SA145 harboring crtM deletion mutant assessed as bacterial survival at 2.5 ug/ml after 2 hrs. To be noted: SA145, 2 h. It is filed as functional.
For assay [7], the system named is Staphylococcus aureus. Briefly: Antibacterial activity against wild type methicillin-susceptible Staphylococcus aureus SA144 by Etest. It is filed as functional.
The subject of assay [8] is Staphylococcus aureus. Briefly: Antibacterial activity against methicillin-susceptible Staphylococcus aureus SA147 harboring deltacrtM-pDCerm::crtMN assessed as bacterial survival at 1.25 ug/ml after 2 hrs. The class given is functional. The settings on record: SA147, 2 h.
The subject of assay [9] is Staphylococcus aureus. Briefly: Antibacterial activity against methicillin-susceptible Staphylococcus aureus SA146 harboring deltacrtM-pDCerm by Etest. The class given is functional.
The test system of assay [10] is Staphylococcus aureus. Briefly: Antibacterial activity against wild type methicillin-susceptible Staphylococcus aureus SA144 assessed as bacterial survival at 0.625 ug/ml after 2 hrs. The class given is functional. The settings on record: SA144, 2 h.
In assay [11] the test system is Staphylococcus aureus. The assay can be described thus: Antibacterial activity against methicillin-susceptible Staphylococcus aureus SA145 harboring crtM deletion mutant assessed as bacterial survival at 0.625 ug/ml after 2 hrs. It is filed as functional. To be noted: SA145, 2 h.
Assay [12] has as its system Staphylococcus aureus. The assay can be described thus: Antibacterial activity against wild type methicillin-susceptible Staphylococcus aureus SA144 assessed as bacterial survival at 1.25 ug/ml after 2 hrs. It is filed as functional. To be noted: SA144, 2 h.
Assay [13] deals with Staphylococcus aureus. The assay can be described thus: Antibacterial activity against methicillin-susceptible Staphylococcus aureus SA147 harboring deltacrtM-pDCerm::crtMN by Etest. It is filed as functional.
Assay [14] concerns Staphylococcus aureus. Briefly: Antibacterial activity against methicillin-susceptible Staphylococcus aureus SA147 harboring deltacrtM-pDCerm::crtMN assessed as bacterial survival at 0.625 ug/ml after 2 hrs. The class given is functional. The settings on record: SA147, 2 h.
Assay [15] has as its system Staphylococcus aureus. The assay can be described thus: Antibacterial activity against methicillin-susceptible Staphylococcus aureus SA145 harboring crtM deletion mutant by Etest. It is filed as functional.
For assay [16], the system named is Staphylococcus aureus. Briefly: Ratio of MIC for methicillin-susceptible Staphylococcus aureus SA147 harboring deltacrtM-pDCerm::crtMN to MIC for wild type methicillin-susceptible Staphylococcus aureus SA144. The class given is functional.
Assay [17] deals with Staphylococcus aureus. Briefly: Antibacterial activity against methicillin-susceptible Staphylococcus aureus SA145 harboring crtM deletion mutant assessed as bacterial survival at 1.25 ug/ml after 2 hrs. It is filed as functional. To be noted: SA145, 2 h.
For assay [18], the system named is Staphylococcus aureus. Briefly: Antibacterial activity against methicillin-susceptible Staphylococcus aureus SA147 harboring deltacrtM-pDCerm::crtMN assessed as bacterial survival at 40 ug/ml after 2 hrs. The class given is functional, organism-based.
Assay [19] deals with Staphylococcus aureus. The assay can be described thus: Antibacterial activity against wild type methicillin-susceptible Staphylococcus aureus SA144 assessed as bacterial survival at 40 ug/ml after 2 hrs. It is filed as functional, organism-based.
Assay [20] has as its system Staphylococcus aureus. Briefly: Antibacterial activity against methicillin-susceptible Staphylococcus aureus SA147 harboring deltacrtM-pDCerm::crtMN assessed as bacterial survival at 80 ug/ml after 2 hrs. The class given is functional, organism-based.
Assay [21] relates to Staphylococcus aureus. Briefly: Antibacterial activity against wild type methicillin-susceptible Staphylococcus aureus SA144 assessed as bacterial survival at 80 ug/ml after 2 hrs. The class given is functional, organism-based.
Assay [22] has as its system Staphylococcus aureus. Briefly: Antibacterial activity against methicillin-susceptible Staphylococcus aureus SA145 harboring crtM deletion mutant assessed as bacterial survival at 80 ug/ml after 2 hrs. The class given is functional, organism-based.
Assay [23] deals with Staphylococcus aureus. The assay can be described thus: Antibacterial activity against methicillin-susceptible Staphylococcus aureus SA145 harboring crtM deletion mutant assessed as bacterial survival at 40 ug/ml after 2 hrs. The class given is functional, organism-based.

In brackets after ≈: the same amount, converted by molar mass.

Consider H-ALYKKFKKKLLKSLKRLG-OH, for which the survival at 2.5 µg/mL was found to be 23% with Staphylococcus aureus [1], 55% in the assay with Staphylococcus aureus [2] and 18% in the assay with Staphylococcus aureus [6]. For the same compound, the survival at 5 µg/mL in the assay on Staphylococcus aureus [3] was 11%; in the assay with Staphylococcus aureus [4], 23%; in the assay on Staphylococcus aureus [5] it was 13%.

For orientation: MIC means the lowest concentration found to suppress growth. Lower therefore signals greater potency. Consider `CCCCCCCCCC(=O)N[C@@H](Cc1c[nH]c2ccccc12)C(=O)N[C@H](CC(N)=O)C(=O)N[C@@H](CC(=O)O)C(=O)N[C@@H]1C(=O)NCC(=O)N[C@@H](CCCN)C(=O)N[C@@H](CC(=O)O)C(=O)N[C@H](C)C(=O)N[C@@H](CC(=O)O)C(=O)NCC(=O)N[C@H](CO)C(=O)N[C@@H]([C@H](C)CC(=O)O)C(=O)N[C@@H](CC(=O)c2ccccc2N)C(=O)O[C@@H]1C`, for which the MIC in the assay with Staphylococcus aureus [7] turned out to be 0.75 µg/mL (≈ 0.463 µM); in the assay on Staphylococcus aureus [9], 0.75 µg/mL (≈ 0.463 µM); against Staphylococcus aureus [13], 1.5 µg/mL (≈ 0.926 µM); in the assay on Staphylococcus aureus [15] it was 0.75 µg/mL (≈ 0.463 µM). Also, the survival at 1.25 µg/mL was 49% with Staphylococcus aureus [8], 12% in the assay with Staphylococcus aureus [12] and 21% in the assay on Staphylococcus aureus [17]. For the same compound, the figures for the survival at 0.625 µg/mL in the assay on Staphylococcus aureus [10], with Staphylococcus aureus [11] and with Staphylococcus aureus [14] were 18%, 24% and 55%, respectively. Moreover, the Ratio with Staphylococcus aureus [16] was determined as 2.

Regarding POLYMYXIN B, the Survival with Staphylococcus aureus [18] came to 25%; with Staphylococcus aureus [19] it was 29%; with Staphylococcus aureus [20] it was 26%; in the assay with Staphylococcus aureus [21], 13%; with Staphylococcus aureus [22], 14%; in the assay on Staphylococcus aureus [23], 23%.
